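Cultured in 96-well plates, cells were exposed to test compound for 48 hours across five concentrations. At the TGI there is no net growth.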 Where a SMILES comes first, the peptide text is derived from it. [ ]: non-standard residue; d: D form. pGlu = O=C1CC[CH](C(=O)O)N1
How the values were obtained:
Assay in all cases: DTP human tumour cell line panel, 48 h
OVCAR-4 ovarian = test system: OVCAR-4 ovarian
SN12C renal = test system: SN12C renal
SW-620 colon = test system: SW-620 colon
EKVX NSCLC = test system: EKVX NSCLC
A549 NSCLC = test system: A549 NSCLC
M14 melanoma = test system: M14 melanoma
SNB-19 CNS = test system: SNB-19 CNS
SK-OV-3 ovarian = test system: SK-OV-3 ovarian
MDA-MB-231 breast = test system: MDA-MB-231 breast
786-0 renal = test system: 786-0 renal
SF-295 CNS = test system: SF-295 CNS
NCI-H226 lung = test system: NCI-H226 lung
MDA-MB-435 = test system: MDA-MB-435
MCF7 breast = test system: MCF7 breast
RXF 393 renal = test system: RXF 393 renal
NCI-H460 lung = test system: NCI-H460 lung
SK-MEL-2 melanoma = test system: SK-MEL-2 melanoma
SF-539 CNS = test system: SF-539 CNS
NCI-H522 lung = test system: NCI-H522 lung

SMILES	TGI (OVCAR-4 ovarian)	TGI (SN12C renal)	TGI (SW-620 colon)	TGI (EKVX NSCLC)	TGI (A549 NSCLC)	TGI (M14 melanoma)	TGI (SNB-19 CNS)	TGI (SK-OV-3 ovarian)	TGI (MDA-MB-231 breast)	TGI (786-0 renal)	TGI (SF-295 CNS)	TGI (NCI-H226 lung)	TGI (MDA-MB-435)	TGI (MCF7 breast)	TGI (RXF 393 renal)	TGI (NCI-H460 lung)	TGI (SK-MEL-2 melanoma)	TGI (SF-539 CNS)	TGI (NCI-H522 lung)
CCOc1cc2c(cc1O)CC[C@@H]1[C@@H]2CC[C@]2(C)C(OS(=O)OC3CC[C@@H]4[C@H]5CCc6cc(O)c(OCC)cc6[C@@H]5CC[C@@]34C)CC[C@@H]12 (some centres not stated)	> 64.5 µM	28.9 µM	11 µM	> 37.7 µM	11.3 µM	2.58 µM	30.4 µM	> 37.3 µM	29.8 µM	> 34.3 µM	22.5 µM	14.6 µM	0.548 µM	7.01 µM	> 20.5 µM	> 34.2 µM	6.19 µM	1.85 µM	–
CC1=Nc2c(C#N)ncn2N=C(C)C1	> 100 µM	> 100 µM	> 100 µM	–	> 100 µM	> 100 µM	–	> 100 µM	> 100 µM	> 100 µM	> 100 µM	> 100 µM	> 100 µM	> 100 µM	> 100 µM	> 100 µM	> 100 µM	> 100 µM	–
CCCC(=O)Nc1cc(/C=C/C(=O)N2CC(CCl)c3c2cc([N+](=O)[O-])c2ccccc32)n(C)c1 (configuration not stated)	> 100 µM	> 100 µM	> 100 µM	–	> 100 µM	> 100 µM	> 100 µM	> 100 µM	> 100 µM	> 100 µM	> 100 µM	> 100 µM	> 100 µM	> 100 µM	> 100 µM	> 100 µM	> 100 µM	> 100 µM	> 100 µM
COC(=O)c1c(O)ccc2c1c1c(n2Cc2ccccc2OC)C(=O)c2ccccc2C1	87.9 µM	74.9 µM	> 100 µM	–	> 100 µM	> 100 µM	> 100 µM	> 100 µM	> 100 µM	> 100 µM	–	> 100 µM	> 100 µM	> 100 µM	88.1 µM	> 100 µM	> 100 µM	> 100 µM	–
CCOC(=O)c1cn(CC)c2cc3c(cc2c1=O)CCS3(=O)=O	–	> 100 µM	> 100 µM	> 100 µM	> 100 µM	> 100 µM	> 100 µM	> 100 µM	> 100 µM	> 100 µM	> 100 µM	> 100 µM	> 100 µM	> 100 µM	> 100 µM	> 100 µM	> 100 µM	> 100 µM	–
COc1ccc(N=N/C(=N/NC(=O)c2cc(Cl)ccc2C(=O)c2ccccc2)c2ccc(N(CCC#N)CCC#N)cc2C)cc1	> 100 µM	47.1 µM	> 100 µM	61.1 µM	> 100 µM	92 µM	> 100 µM	> 100 µM	58.1 µM	86.7 µM	> 100 µM	66.3 µM	> 100 µM	> 100 µM	30.4 µM	45.3 µM	50 µM	–	–
CCOC(=O)C1=CC(C)(C(=O)OCC)Nc2c(nc(SC)n(C)c2=O)N1 (configuration not stated)	> 10 µM	> 10 µM	> 10 µM	> 10 µM	> 10 µM	> 10 µM	> 10 µM	> 10 µM	> 10 µM	> 10 µM	> 10 µM	> 10 µM	> 10 µM	> 10 µM	–	> 10 µM	> 10 µM	> 10 µM	> 10 µM
CC(NC(=O)C(Cc1cnc[nH]1)NC(=O)C1CCC(=O)N1)C(N)=O (stereo not drawn) ([pGlu]-His-Ala-NH2; configuration not given here)	–	> 100 µM	> 100 µM	> 100 µM	> 100 µM	> 100 µM	> 100 µM	> 100 µM	> 100 µM	> 100 µM	> 100 µM	> 100 µM	> 100 µM	> 100 µM	> 100 µM	> 100 µM	–	–	–
CO[C@H]1C[C@H](n2cc(C)c(=O)[nH]c2=O)O[C@@H]1CO	> 100 µM	> 100 µM	> 100 µM	> 100 µM	> 100 µM	> 100 µM	> 100 µM	> 100 µM	> 100 µM	> 100 µM	> 100 µM	> 100 µM	> 100 µM	> 100 µM	> 100 µM	> 100 µM	–	> 100 µM	–
CCC/C(Cl)=N\OC(=O)Nc1ccc(F)c([N+](=O)[O-])c1	28.9 µM	72.2 µM	39.6 µM	29.9 µM	66.4 µM	30.4 µM	28.5 µM	78.9 µM	36.8 µM	40 µM	> 100 µM	55.7 µM	30.4 µM	75.5 µM	–	34.9 µM	27.3 µM	42.9 µM	4.3 µM
Cc1cc2c(c(C(=O)NCCC(=O)N[C@@H](C)C(=O)OCc3ccccc3)c1)Oc1c(cc(C)cc1C(=O)NCCC(=O)N[C@@H](C)C(=O)OCc1ccccc1)S2	> 100 µM	> 100 µM	> 100 µM	> 100 µM	> 100 µM	> 100 µM	> 100 µM	> 100 µM	> 100 µM	> 100 µM	> 100 µM	> 100 µM	> 100 µM	> 100 µM	> 100 µM	> 100 µM	> 100 µM	–	–
